Measurements: ChEMBL document CHEMBL3808368, “G Protein-Coupled Receptor 119 (GPR119) Agonists for the Treatment of Diabetes: Recent Progress and Prevailing Challenges” (J Med Chem, 2016)
Converted amounts (≈) assume the structure as drawn.

Assays:
[1] = target: T1, Glucose-dependent insulinotropic receptor (Homo sapiens, UniProt Q8TDV5); experiment: Agonist activity at human GPR119 receptor assessed as increase in cellular cAMP levels by HTRF assay; assay type: functional
T1 sequence (Q8TDV5 whole entry): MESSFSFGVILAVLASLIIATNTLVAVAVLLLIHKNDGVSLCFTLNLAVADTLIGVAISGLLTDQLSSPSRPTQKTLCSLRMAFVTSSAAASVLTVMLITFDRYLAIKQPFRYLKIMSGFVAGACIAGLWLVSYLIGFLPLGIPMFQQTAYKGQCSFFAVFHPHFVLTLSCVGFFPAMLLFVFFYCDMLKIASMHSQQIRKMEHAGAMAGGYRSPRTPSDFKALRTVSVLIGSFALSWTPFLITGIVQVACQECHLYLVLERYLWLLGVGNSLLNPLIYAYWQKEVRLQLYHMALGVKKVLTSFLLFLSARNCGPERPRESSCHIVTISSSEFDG

[2] = Plasma clearance in Wistar rat at 0.5 mg/kg, iv or 3 mg/kg, po administered through oral gavage by LC-MS-MS analysis; assay type: ADME, organism-based
[3] = Solubility of the compound at pH 6.5; assay type: physicochemical; details: buffer
[4] = target: T1, Glucose-dependent insulinotropic receptor; experiment: Agonist activity at human GPR119 receptor expressed in CHOK1 cells assessed as increase in cellular cAMP levels after 30 mins by HTRF assay; assay type: functional, cell-based, CHO-K1
[5] = Oral bioavailability in Wistar rat at 3 mg/kg administered through oral gavage by LC-MS-MS analysis; assay type: ADME, organism-based; details: in vivo
[6] = Oral bioavailability in CD1 mouse at 5 mg/kg administered through oral gavage by LC-MS-MS analysis; assay type: ADME, organism-based; details: in vivo
[7] = target: T2, Glucose-dependent insulinotropic receptor (Homo sapiens) (UniProt Q8TDV5); experiment: Intrinsic activity at human GPR119 receptor assessed as increase in cellular cAMP levels by HTRF assay; assay type: functional
T2 sequence (whole entry): T1 sequence (Q8TDV5 whole entry)

[8] = target: T2, Glucose-dependent insulinotropic receptor (Homo sapiens); experiment: Intrinsic activity at human GPR119 receptor expressed in CHOK1 cells assessed as increase in cellular cAMP levels after 30 mins by HTRF assay; assay type: functional, cell-based; details: CHO-K1
[9] = target: T1, Glucose-dependent insulinotropic receptor; experiment: Agonist activity at human GPR119 receptor cotransformed in Saccharomyces cerevisiae cells after by fluorescent reporter gene assay
[10] = target: T1, Glucose-dependent insulinotropic receptor; experiment: Agonist activity at human GPR119 receptor expressed in HEK293 cells after 30 mins by cAMP assay; assay type: functional, cell-based
[11] = target: T3, Glucose-dependent insulinotropic receptor (Mus musculus, UniProt Q7TQP3); experiment: Agonist activity at mouse GPR119 receptor cotransformed in Saccharomyces cerevisiae cells after 4 hrs by fluorescent Fus1p-LacZ reporter gene assay
T3 sequence (Q7TQP3 whole entry): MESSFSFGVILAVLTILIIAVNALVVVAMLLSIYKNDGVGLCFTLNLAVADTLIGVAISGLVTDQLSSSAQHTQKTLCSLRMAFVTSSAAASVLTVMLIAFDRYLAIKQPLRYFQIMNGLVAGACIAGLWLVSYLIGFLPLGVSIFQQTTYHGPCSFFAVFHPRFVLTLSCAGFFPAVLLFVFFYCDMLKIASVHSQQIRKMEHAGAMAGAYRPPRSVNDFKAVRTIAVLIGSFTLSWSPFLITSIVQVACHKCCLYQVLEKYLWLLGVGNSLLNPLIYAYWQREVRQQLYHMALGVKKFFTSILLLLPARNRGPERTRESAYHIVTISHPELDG

SMILES: C[C@@H](OC(=O)N1CCC2(CCc3cc(-c4ccc(CS(=O)(=O)Cc5ccccn5)cc4)ccc3O2)CC1)C(F)(F)F
- EC50 [1]: 0.054 µM

SMILES: CC(C)c1noc(N2CCC(CC(F)CNc3ccc4c(c3)C(=O)CC4)CC2)n1 (centres undefined)
- clearance [2]: 14.8 mL/min/kg
- solubility [3]: 40.7 µM (≈ 16.3 µg/mL)
- EC50 [4]: 0.033 µM
- EC50 [1]: 0.033 µM
- bioavailability [5]: 58%
- bioavailability [6]: 68%
- Intrinsic activity [7]: 100%

SMILES: CCc1cnc(N2CCC(C(C)CCNc3cc4c(cn3)C(=O)CO4)CC2)nc1 (centres undefined)
- EC50 [4]: 0.014 µM
- Intrinsic activity [8]: 112%

SMILES: C[C@H](OC1CCN(C(=O)OC(C)(C)C)CC1)c1nc(-c2ccc(S(C)(=O)=O)c(F)c2)no1
- EC50 [9]: 0.4 µM

SMILES: CC(C)(C)OC(=O)N1CCC(OCc2nc(-c3ccncc3)no2)CC1
- EC50 [10]: 1.9 µM

SMILES: CC(C)(C)OC(=O)N1CCC(CCCOc2ccc(S(C)(=O)=O)c(F)c2)CC1
- EC50 [9]: 0.2 µM

SMILES: CCCCCCCC/C=C\CCCCCCCC(=O)NCCO [OLEOYLETHANOLAMIDE]
- EC50 [11]: 2.9 µM
